pIC50: −log10 of the molar value.
Target: human recombinant H-PGDS (Homo sapiens, UniProt O60760)
Experiment: Fluorescence intensity h-PGDS TBA enzyme assay (PGH2 depletion, MDA/TBA fluorescence)
Assay type: biochemical
Conditions: 1:175,000 human recombinant H-PGDS, 42 second reaction, 3-fold serial dilutions, highest concentration typically 1 μM
In short: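 Recombinant human H-PGDS preincubated with inhibitor 10 min at room temperature in pH 8.0 Tris, MgCl2, IgG, 2.5 mM glutathione, 0.5% DMSO. Reaction with 5.0 μM PGH2 stopped at 42 s with FeCl2/citric acid; MDA–TBA fluorescence (ex 530/em 565 nm) read after 70° C. IC50 by 4-parameter fit, 11 concentrations.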

human recombinant H-PGDS, sequence (O60760 whole entry): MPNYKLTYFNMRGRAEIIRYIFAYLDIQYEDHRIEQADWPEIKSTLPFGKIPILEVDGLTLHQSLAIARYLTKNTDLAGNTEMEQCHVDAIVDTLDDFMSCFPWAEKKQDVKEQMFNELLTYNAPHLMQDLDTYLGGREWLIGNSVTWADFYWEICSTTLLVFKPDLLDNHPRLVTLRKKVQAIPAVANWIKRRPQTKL

| Compound | pIC50 |
| --- | --- |
| O=C(N[C@H]1CC[C@H]([C@H](O)C2CC2)CC1)c1ccc(-c2cccc(F)c2)nc1 [Example 212, N-[4-trans-((R)-Cyclopropylhydroxymethyl)cyclohexyl]-6-(3-fluorophenyl)nicotinamide] | 8.64 |
| O=C(N[C@H]1CC[C@H](N2CCCC2)CC1)c1ccc(-c2cccc(F)c2)nc1 [Example 213, 6-(3-Fluorophenyl)-N-(trans-4-pyrrolidin-1-ylcyclohexyl)nicotinamide] | 7.44 |
| CCC(O)[C@H]1CC[C@H](NC(=O)c2ccc(-c3cccc(F)c3)nc2)CC1 (stereo partly drawn) [Example 214, 6-(3-Fluorophenyl)-N-[trans-4-(1-hydroxypropyl)cyclohexyl]nicotinamide] | 8.52 |
| CC(O)[C@H]1CC[C@H](NC(=O)c2ccc(-c3cccc(F)c3)nc2)CC1 (stereo partly drawn) [Example 215, 6-(3-Fluorophenyl)-N-[trans-4-(1-hydroxyethyl)cyclohexyl]nicotinamide] | 8.23 |
| CC(C)(O)C(=O)N[C@H]1CC[C@@H](NC(=O)c2ccc(-c3cccc(F)c3)nc2)CC1 [Example 216, 6-(3-Fluorophenyl)-N-{cis-4-[(2-hydroxy-2-methylpropanoyl)amino]cyclohexyl}nicotinamide] | 7.50 |
| CN1CCC(C(=O)N[C@H]2CC[C@@H](NC(=O)c3ccc(-c4cccc(F)c4)nc3)CC2)CC1 [Example 218, 6-(3-fluorophenyl)-N-(cis-4-{[(1-methylpiperidin-4-yl)carbonyl]amino}cyclohexyl)nicotinamide] | 7.10 |
| O=C(CO)N[C@H]1CC[C@@H](NC(=O)c2ccc(-c3cccc(F)c3)nc2)CC1 [Example 220, 6-(3-fluorophenyl)-N-[cis-4-(glycoloylamino)cyclohexyl]nicotinamide] | 7.49 |
| CN(C)CC(=O)N[C@H]1CC[C@@H](NC(=O)c2ccc(-c3cccc(F)c3)nc2)CC1 [Example 221, N-{cis-4-[(N,N-dimethylglycyl)amino]cyclohexyl}-6-(3-fluorophenyl)nicotinamide] | 7.28 |
| NCC(=O)N[C@H]1CC[C@@H](NC(=O)c2ccc(-c3cccc(F)c3)nc2)CC1 [Example 224, 6-(3-fluorophenyl)-N-[cis-4-(glycylamino)cyclohexyl]nicotinamide] | 7.13 |
| COC1(CO)CCC(NC(=O)c2ccc(-c3cccc(F)c3)nc2)CC1 (stereo not drawn) [Example 225, 6-(3-Fluorophenyl)-N-[4-(hydroxymethyl)-4-methoxycyclohexyl]nicotinamide] | 8.28 |
| CC(C)OCC1(O)CCC(NC(=O)c2ccc(-c3cccc(F)c3)nc2)CC1 (stereo not drawn) [Example 226, 6-(3-Fluorophenyl)-N-[4-hydroxy-4-(isopropoxymethyl)cyclohexyl]nicotinamide] | 7.88 |
| O=C(NC1CCC(O)(CO)CC1)c1ccc(-c2cccc(F)c2)nc1 (stereo not drawn) [Example 227, 6-(3-Fluorophenyl)-N-[4-hydroxy-4-(hydroxymethyl)cyclohexyl]nicotinamide] | 7.62 |
| CCCOCC1(O)CCC(NC(=O)c2ccc(-c3cccc(F)c3)nc2)CC1 (stereo not drawn) [Example 228, 6-(3-Fluorophenyl)-N-[4-hydroxy-4-(propoxymethyl)cyclohexyl]nicotinamide] | 7.76 |
| CNC(=O)OC(C)(C)[C@H]1CC[C@H](NC(=O)c2ccc(-c3cccc(F)c3)nc2)CC1 [Example 229, 1-[trans-4-({[6-(3-Fluorophenyl)pyridin-3-yl]carbonyl}amino)cyclohexyl]-1-methylethyl methylcarbamate] | 8.60 |
| CN1CCN(C(=O)[C@@]2(C)CCC[C@@H](NC(=O)c3ccc(-c4cccc(F)c4)nc3)C2)CC1 [Example 230, 6-(3-Fluorophenyl)-N-{(1R,3S)-3-methyl-3-[(4-methylpiperazin-1-yl)carbonyl]cyclohexyl}nicotinamide] | 7.43 |
| COC1(C(C)O)CCC(NC(=O)c2ccc(-c3cccc(F)c3)nc2)CC1 (stereo not drawn) [Example 232, 6-(3-Fluorophenyl)-N-[4-(1-hydroxyethyl)-4-methoxycyclohexyl]nicotinamide] | 7.51 |
| CN(C)C(=O)N[C@H]1CC[C@@H](NC(=O)c2ccc(-c3cccc(F)c3)nc2)CC1 [Example 234, N-{cis-4-[(Dimethylcarbamoyl)amino]cyclohexyl}-6-(3-fluorophenyl)nicotinamide] | 7.96 |
| COCC1(O)CCC(NC(=O)c2ccc(-c3cccc(F)c3)nc2)CC1 (stereo not drawn) [Example 235, 6-(3-Fluorophenyl)-N-[4-hydroxy-4-(methoxymethyl)cyclohexyl]nicotinamide] | 7.93 |
| CNC(=O)N[C@H]1CC[C@@H](NC(=O)c2ccc(-c3cccc(F)c3)nc2)CC1 [Example 236, 6-(3-Fluorophenyl)-N-{cis-4-[(methylcarbamoyl)amino]cyclohexyl}nicotinamide] | 8.24 |
| C[C@H](O)C(=O)N[C@H]1CCC[C@H](NC(=O)c2ccc(-c3cccc(F)c3)nc2)C1 [Example 246, 6-(3-Fluorophenyl)-N-{trans-3-{[(2S)-2-hydroxypropanoyl]amino}cyclohexyl]nicotinamide] | 7.79 |
| O=C(N[C@@H]1CCC[C@H](CNC(=O)[C@@H]2CCCN2)C1)c1ccc(-c2cccc(F)c2)nc1 [Example 259] | 7.36 |
| O=C(N[C@H]1CCC[C@@H](C(=O)N2CCC(O)CC2)C1)c1ccc(-c2cccc(F)c2)nc1 [Example 260, 6-(3-Fluorophenyl)-N-{(1S,3R)-3-[(4-hydroxypiperidin-1-yl)carbonyl]cyclohexyl}nicotinamide] | 7.22 |
| Cc1noc(C[C@H]2CC[C@H](NC(=O)c3ccc(-c4cccc(F)c4)nc3)CC2)n1 [Example 261, 6-(3-Fluorophenyl)-N-[trans 4-(3-methyl-[1,2,4]oxadiazol-5-ylmethyl)cyclohexyl]nicotinamide] | 8.40 |
| CN1CCN(C(=O)C2(C#N)CCCC(NC(=O)c3ccc(-c4cccc(F)c4)nc3)C2)CC1 (stereo not drawn) [Example 263, N-{3-Cyano-3-[(4-methylpiperazin-1-yl)carbonyl]cyclohexyl}-6-(3-fluorophenyl)nicotinamide] | 8.30 |
| CCN1CCN(C(=O)C2(C#N)CCCC(NC(=O)c3ccc(-c4cccc(F)c4)nc3)C2)CC1 (stereo not drawn) [Example 264, N-{3-Cyano-3-[(4-ethylpiperazin-1-yl)carbonyl]cyclohexyl}-6-(3-fluorophenyl)nicotinamide] | 8.04 |
| N#CC1(C(=O)N2CCOCC2)CCCC(NC(=O)c2ccc(-c3cccc(F)c3)nc2)C1 (stereo not drawn) [Example 265, N-[3-Cyano-3-(morpholin-4-ylcarbonyl)cyclohexyl]-6-(3-fluorophenyl)nicotinamide] | 8.55 |
| CN(C)C(=O)C1(C#N)CCCC(NC(=O)c2ccc(-c3cccc(F)c3)nc2)C1 (stereo not drawn) [Example 266, N-[3-Cyano-3-(dimethylcarbamoyl)cyclohexyl]-6-(3-fluorophenyl)nicotinamide] | 7.97 |
| CNC(=O)N[C@H]1CC[C@H](NC(=O)c2ccc(-c3cccc(F)c3)nc2)CC1 [Example 270] | 8.04 |
| CN(C)C(=O)N[C@H]1CC[C@H](NC(=O)c2ccc(-c3cccc(F)c3)nc2)CC1 [Example 271] | 7.74 |
| CNC(=O)N(C)[C@H]1CC[C@H](NC(=O)c2ccc(-c3cccc(F)c3)nc2)CC1 [Example 272, 6-(3-Fluorophenyl)-N-{trans-4-[methyl(methylcarbamoyl)amino]cyclohexyl}nicotinamide] | 7.96 |
